Holding throughout (type): functional, cell-based
Data set [1] concerns the target T1, Solute carrier family 15 member 2 (Rattus norvegicus, UniProt Q63424).
T1 sequence (Q63424 whole entry): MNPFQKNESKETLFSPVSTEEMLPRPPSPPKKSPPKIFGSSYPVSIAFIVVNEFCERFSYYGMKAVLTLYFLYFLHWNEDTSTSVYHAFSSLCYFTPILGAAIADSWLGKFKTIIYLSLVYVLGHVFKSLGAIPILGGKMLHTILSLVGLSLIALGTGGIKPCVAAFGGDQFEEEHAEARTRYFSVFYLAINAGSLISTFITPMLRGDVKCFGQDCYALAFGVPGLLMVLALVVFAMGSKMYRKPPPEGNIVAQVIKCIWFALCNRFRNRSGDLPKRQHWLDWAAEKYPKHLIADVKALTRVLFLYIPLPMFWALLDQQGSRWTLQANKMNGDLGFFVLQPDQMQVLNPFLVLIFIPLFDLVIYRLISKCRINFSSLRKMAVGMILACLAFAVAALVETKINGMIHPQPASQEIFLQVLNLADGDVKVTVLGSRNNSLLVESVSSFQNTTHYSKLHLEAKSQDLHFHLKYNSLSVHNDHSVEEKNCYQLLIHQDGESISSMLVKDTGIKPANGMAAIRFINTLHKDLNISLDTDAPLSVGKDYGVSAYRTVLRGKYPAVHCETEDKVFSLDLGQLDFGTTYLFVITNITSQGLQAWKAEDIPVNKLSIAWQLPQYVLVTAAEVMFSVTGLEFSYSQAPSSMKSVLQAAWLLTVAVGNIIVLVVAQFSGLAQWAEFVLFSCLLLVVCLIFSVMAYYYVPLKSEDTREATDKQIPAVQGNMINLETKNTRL
Description: TP_TRANSPORTER: inhibition of Gly-Sar uptake in PEPT2-expressing LLC-PK1 cells.

Data set [2] concerns the target T2, Solute carrier family 15 member 1 (Rattus norvegicus, UniProt P51574).
T2 sequence (P51574 whole entry): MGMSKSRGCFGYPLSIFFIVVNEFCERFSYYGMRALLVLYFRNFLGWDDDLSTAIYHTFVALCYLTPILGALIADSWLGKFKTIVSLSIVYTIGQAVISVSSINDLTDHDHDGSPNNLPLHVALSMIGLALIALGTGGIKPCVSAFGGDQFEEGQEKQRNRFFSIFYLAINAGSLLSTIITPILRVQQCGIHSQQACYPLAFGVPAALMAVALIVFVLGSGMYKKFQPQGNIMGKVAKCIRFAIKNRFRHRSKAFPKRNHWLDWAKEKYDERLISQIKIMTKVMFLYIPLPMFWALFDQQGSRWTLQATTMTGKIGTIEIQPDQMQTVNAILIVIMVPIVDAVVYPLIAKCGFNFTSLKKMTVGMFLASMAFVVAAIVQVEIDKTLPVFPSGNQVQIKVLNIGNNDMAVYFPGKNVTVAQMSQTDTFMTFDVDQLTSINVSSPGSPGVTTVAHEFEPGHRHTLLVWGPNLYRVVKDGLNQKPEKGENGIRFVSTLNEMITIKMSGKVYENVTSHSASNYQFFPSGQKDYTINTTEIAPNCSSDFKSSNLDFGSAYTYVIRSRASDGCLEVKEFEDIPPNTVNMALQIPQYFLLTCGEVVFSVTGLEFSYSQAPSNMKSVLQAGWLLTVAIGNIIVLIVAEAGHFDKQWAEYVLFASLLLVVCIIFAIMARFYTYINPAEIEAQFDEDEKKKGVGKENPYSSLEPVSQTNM
Description: TP_TRANSPORTER: inhibition of Gly-Sar uptake in PEPT1-expressing LLC-PK1 cells.

Substrate in data set [3]: CN(CC(=O)O)C(=O)CN
Description: TP_TRANSPORTER: uptake in PEPT1-expressing LLC-PK1 cells.

Substrate in data set [4]: CN(CC(=O)O)C(=O)CN
Description: TP_TRANSPORTER: uptake in PEPT2-expressing LLC-PK1 cells.

For `Nc1nc(/C(=C/CC(=O)O)C(=O)N[C@@H]2C(=O)N3C(C(=O)O)=CCS[C@H]23)cs1` [CEFTIBUTEN], the Ki in data set [1] is 1340 µM; in data set [2] it was 597 µM.
The like results for `C=CC1=C(C(=O)O)N2C(=O)[C@@H](NC(=O)/C(=N\O)c3csc(N)n3)[C@H]2SC1` [CEFDINIR] were, in that order, 20100 µM and 11900 µM.
For `CC1=C(C(=O)O)N2C(=O)[C@@H](NC(=O)[C@H](N)c3ccc(O)cc3)[C@H]2SC1` [CEFADROXIL], in that order: 3 µM and 2170 µM.
`CC1(C)S[C@@H]2[C@H](NC(=O)[C@H](N)c3ccccc3)C(=O)N2[C@H]1C(=O)O` [AMPICILLIN]: the figures for the Ki in data set [1] and in data set [2] were 669 µM and 47800 µM, respectively.
With `CC1(C)S[C@@H]2[C@H](NC(=O)C3(N)CCCCC3)C(=O)N2[C@H]1C(=O)O` [CYCLACILLIN], the Ki in data set [1] amounted to 27 µM; in data set [2], 168 µM.
Regarding `CC1=C(C(=O)O)N2C(=O)[C@@H](NC(=O)[C@H](N)c3ccccc3)[C@H]2SC1` [CEPHALEXIN ANHYDROUS], the inhibition constant (Ki) in data set [1] was found to be 49 µM; in data set [2], 4500 µM.
With `CC1=C(C(=O)O)N2C(=O)[C@@H](NC(=O)[C@H](N)C3=CCC=CC3)[C@H]2SC1` [CEPHRADINE], the Ki in data set [1] is 47 µM; in data set [2] it was 8540 µM.
The like results for `CC1(C)S[C@@H]2[C@H](NC(=O)[C@H](N)c3ccc(O)cc3)C(=O)N2[C@H]1C(=O)O` [AMOXICILLIN] were, in that order, 179 µM and 13000 µM.
The like results for `C=CC1=C(C(=O)O)N2C(=O)[C@@H](NC(=O)/C(=N\OCC(=O)O)c3csc(N)n3)[C@H]2SC1` [CEFIXIME] were, in that order, 11900 µM and 6920 µM.

B1: Solute carrier family 15 member 1 (Rattus norvegicus), P51574 (protein)
chain: T2 sequence (P51574 whole entry)
Take B1: the Michaelis constant (Km) in data set [3] amounted to 1100 µM.

B2: Solute carrier family 15 member 2 (Rattus norvegicus), Q63424 (protein)
chain: T1 sequence (Q63424 whole entry)
For B2, the Km in data set [4] worked out at 110 µM.

The record behind these values is ChEMBL document CHEMBL2074442, “Recognition of beta-lactam antibiotics by rat peptide transporters, PEPT1 and PEPT2, in LLC-PK1 cells” (Am J Physiol, 1997).
